Measurements published in patent US20230265151A1, “GIP/GLP1 CO-AGONIST COMPOUNDS” (priority 2020, published 2023).
Like-named read-outs stand apart in the source and are kept apart here. *1 amine or outer side, *2 acyl side, *3 side chain or, on linkers, in order; H or OH if unused. Where a SMILES comes first, the peptide text is derived from it. Side-chain parts run from the residue outwards. [ ]: non-standard residue; d: D form. The star is where a group is joined. Decanoyl(10-(4-HOOC-PhO)) = O=C(O)c1ccc(OCCCCCCCCCC(=O)*)cc1; αMePhe(2-F) = C[C@](N)(Cc1ccccc1F)C(=O)O; γGlu = O=C(O)[C@H](CCC(=O)[*:2])N[*:1]; αMeY = C[C@](N)(Cc1ccc(O)cc1)C(=O)O; αMeL = CC(C)C[C@](C)(N)C(=O)O; Orn = NCCC[C@H](N)C(=O)O; AEEA = NCCOCCOCC(=O)O; Aib = CC(C)(N)C(=O)O

How the values were obtained:
Type in all cases: cell-based
hGCGR = target: T1, hGCGR (Homo sapiens, UniProt P47871); assay: Functional cAMP formation (HTRF) in HEK-293 clonal cells expressing hGCGR, 0.1% bovine casein, without or with 1.0% human serum albumin
T1 construct: expressed in transfected cells
How it was run: (§1)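 Cells were stimulated with peptide for 30 min at 37° C, then lysed in buffer carrying cAMP-d2 and anti-cAMP Eu3+-cryptate for a competitive HTRF read after at least 60 min at room temperature. The 665/620 nm ratio was converted to nM cAMP against a standard curve.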

hGIPR = target: T2, hGIPR (Homo sapiens, UniProt P48546); assay: Functional cAMP formation (HTRF) in HEK-293 clonal cells expressing hGIPR, 0.1% bovine casein, without or with 1.0% human serum albumin; settings: for EC50: geometric mean
T2 construct: expressed in transfected cells
T2 sequence (P48546 22-466): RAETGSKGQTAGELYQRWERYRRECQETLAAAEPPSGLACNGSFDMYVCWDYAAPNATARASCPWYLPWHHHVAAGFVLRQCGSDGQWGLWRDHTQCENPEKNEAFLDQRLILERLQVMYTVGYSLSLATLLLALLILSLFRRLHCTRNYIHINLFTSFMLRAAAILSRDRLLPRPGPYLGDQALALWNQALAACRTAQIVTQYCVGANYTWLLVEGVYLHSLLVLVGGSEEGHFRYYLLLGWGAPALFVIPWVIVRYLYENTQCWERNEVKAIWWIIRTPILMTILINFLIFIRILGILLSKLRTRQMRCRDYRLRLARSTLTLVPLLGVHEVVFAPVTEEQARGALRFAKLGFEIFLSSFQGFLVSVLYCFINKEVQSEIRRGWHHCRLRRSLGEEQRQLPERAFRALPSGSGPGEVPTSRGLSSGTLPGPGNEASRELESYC
How it was run: as §1

hGLP-1R = hGLP-1R (Homo sapiens, UniProt P43220); assay: Functional cAMP formation (HTRF) in HEK-293 clonal cells expressing hGLP-1R, 0.1% bovine casein, without or with 1.0% human serum albumin; set-up: expressed in transfected cells; settings: for EC50: hGLP-1R EC50, nM (SEM, n)
How it was run: as §1

[1] = cAMP, incubated at 37° C., 0.1% bovine casein (no human serum albumin), geometric mean, read-out: hGCGR EC50, nM (SEM, n)
[2] = HEK293, percent of maximal response to GIP(1-42)NH2, 37° C., 0.1% bovine casein, arithmetic mean, read-out: hGIPR Emax, % ± SEM
[3] = cAMP, incubated at 37° C., 0.1% bovine casein (no human serum albumin), read-out: hGIPR EC50, nM (SEM, n)
[4] = HEK293, percent of maximal response to GLP-1(7-36)NH2, 37° C., 0.1% bovine casein, arithmetic mean, read-out: hGLP-1R Emax, % ± SEM

Sequence of hGLP-1R (P43220 24-463): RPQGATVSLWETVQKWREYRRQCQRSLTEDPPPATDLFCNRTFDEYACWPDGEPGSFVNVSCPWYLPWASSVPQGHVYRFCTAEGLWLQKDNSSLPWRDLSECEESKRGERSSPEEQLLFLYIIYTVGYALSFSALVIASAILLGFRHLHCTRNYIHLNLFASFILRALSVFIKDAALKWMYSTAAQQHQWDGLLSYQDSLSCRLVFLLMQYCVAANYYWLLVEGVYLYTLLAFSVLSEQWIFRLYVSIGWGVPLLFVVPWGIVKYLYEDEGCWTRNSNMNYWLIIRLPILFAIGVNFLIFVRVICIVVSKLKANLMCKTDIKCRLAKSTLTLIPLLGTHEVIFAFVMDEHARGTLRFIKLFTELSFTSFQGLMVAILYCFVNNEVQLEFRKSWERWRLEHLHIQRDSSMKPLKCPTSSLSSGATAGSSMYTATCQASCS
T1 sequence (P47871 26-477): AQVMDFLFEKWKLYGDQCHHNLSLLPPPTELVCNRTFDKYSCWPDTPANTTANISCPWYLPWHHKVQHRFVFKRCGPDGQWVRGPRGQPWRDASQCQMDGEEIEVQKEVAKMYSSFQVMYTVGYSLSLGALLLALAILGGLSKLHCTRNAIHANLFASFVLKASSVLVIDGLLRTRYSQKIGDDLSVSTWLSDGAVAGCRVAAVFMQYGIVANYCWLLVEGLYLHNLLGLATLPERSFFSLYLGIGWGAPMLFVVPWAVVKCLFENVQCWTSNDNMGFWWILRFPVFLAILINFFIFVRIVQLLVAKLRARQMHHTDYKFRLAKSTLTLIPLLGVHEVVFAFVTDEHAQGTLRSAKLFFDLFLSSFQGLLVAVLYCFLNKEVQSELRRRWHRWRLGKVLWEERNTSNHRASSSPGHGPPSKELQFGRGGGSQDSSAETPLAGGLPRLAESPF

## CCCCCCCCCCCC(=O)N[C@@H](CCC(=O)NCCOCCOCC(=O)NCCOCCOCC(=O)NCCCC[C@H](NC(=O)CNC(=O)CNC(=O)[C@H](CCC(=O)O)NC(=O)[C@@H](NC(=O)[C@H](CC(C)C)NC(=O)[C@](C)(Cc1ccc(O)cc1)NC(=O)[C@@H](CCC(=O)O)NC(=O)[C@@H](NC(=O)[C@H](Cc1ccccc1)NC(=O)[C@H](CCC(=O)O)NC(=O)C(C)(C)NC(=O)[C@H](CCC(N)=O)NC(=O)[C@H](C)NC(=O)[C@H](CCCCNC(=O)COCCOCCNC(=O)COCCOCCNC(=O)CC[C@H](NC(=O)CCCCCCCCCCC)C(=O)O)NC(=O)[C@H](CCCN)NC(=O)[C@H](CC(=O)O)NC(=O)[C@H](CC(C)C)NC(=O)[C@](C)(CC(C)C)NC(=O)[C@@H](NC(=O)C(C)(C)NC(=O)[C@@H](NC(=O)[C@H](CC(=O)O)NC(=O)[C@H](CO)NC(=O)[C@@H](NC(=O)[C@](C)(Cc1ccccc1)NC(=O)[C@@H](NC(=O)CNC(=O)[C@H](CCC(=O)O)NC(=O)C(C)(C)NC(=O)[C@@H](N)Cc1ccc(O)cc1)[C@@H](C)O)[C@@H](C)O)C(C)C)[C@@H](C)CC)[C@@H](C)CC)[C@@H](C)CC)C(=O)N[C@@H](CO)C(=O)N[C@@H](CO)C(=O)NCC(=O)N[C@@H](C)C(=O)N1CCC[C@H]1C(=O)N1CCC[C@H]1C(=O)N1CCC[C@H]1C(=O)N[C@@H](CO)C(N)=O)C(=O)O [Example 176]
hGCGR; [1]
  EC50: > 9950 nM
hGIPR; [2]
  Emax: 89.3%
hGIPR; [3]
  EC50: 0.0485 nM
hGLP-1R; [4]
  Emax: 98.9%

## CC[C@H](C)[C@H](NC(=O)[C@H](CC(C)C)NC(=O)[C@](C)(Cc1ccc(O)cc1)NC(=O)[C@@H](CCC(=O)O)NC(=O)[C@@H](NC(=O)[C@H](Cc1ccccc1)NC(=O)[C@H](Cc1ccncc1)NC(=O)C(C)(C)NC(=O)[C@H](CCC(N)=O)NC(=O)[C@H](C)NC(=O)[C@H](CCCCNC(=O)COCCOCCNC(=O)COCCOCCNC(=O)CC[C@H](NC(=O)CCCCCCCCCCCCC(=O)O)C(=O)O)NC(=O)[C@H](CCCN)NC(=O)[C@H](CC(=O)O)NC(=O)[C@H](CC(C)C)NC(=O)[C@](C)(CC(C)C)NC(=O)[C@@H](NC(=O)[C@H](CO)NC(=O)[C@H](Cc1ccncc1)NC(=O)[C@H](CC(=O)O)NC(=O)[C@H](CO)NC(=O)[C@@H](NC(=O)[C@](C)(Cc1ccccc1F)NC(=O)[C@@H](NC(=O)CNC(=O)[C@H](CCC(=O)O)NC(=O)C(C)(C)NC(=O)[C@@H](N)Cc1ccc(O)cc1)[C@@H](C)O)[C@@H](C)O)[C@@H](C)CC)[C@@H](C)CC)C(=O)N[C@@H](CCC(=O)O)C(=O)NCC(=O)NCC(=O)N[C@@H](CCCCNC(=O)COCCOCCNC(=O)COCCOCCNC(=O)CC[C@H](NC(=O)CCCCCCCCCCCCC(=O)O)C(=O)O)C(=O)N[C@@H](CO)C(=O)N[C@@H](CO)C(=O)NCC(=O)N[C@@H](C)C(=O)N1CCC[C@H]1C(=O)N1CCC[C@H]1C(=O)N1CCC[C@H]1C(=O)N[C@@H](CO)C(N)=O [Example 157]
hGCGR; 0.1% bovine casein and 1.0% human serum albumin, 37° C., geometric mean, read-out: hGCGR EC50, nM (SEM, n)
  EC50: > 9950 nM
hGCGR; [1]
  EC50: > 9950 nM
hGIPR; 0.1% bovine casein and 1.0% human serum albumin, 37° C., read-out: hGIPR EC50, nM (SEM, n)
  EC50: 0.718 nM
hGIPR; HEK293, 0.1% bovine casein and 1.0% human serum albumin, 37° C., percent of maximal response to GIP(1-42)NH2, read-out: hGIPR Emax, % ± SEM
  Emax: 89.6 ± 3.39%
hGIPR; [2]
  Emax: 98.8 ± 1.33%
hGIPR; [3]
  EC50: 0.0286 nM
hGLP-1R; [4]
  Emax: 98.5 ± 4.73%

## CC[C@H](C)[C@H](NC(=O)[C@H](CC(C)C)NC(=O)[C@](C)(Cc1ccc(O)cc1)NC(=O)[C@@H](CCC(=O)O)NC(=O)[C@@H](NC(=O)[C@H](Cc1ccccc1)NC(=O)[C@H](CCC(=O)O)NC(=O)C(C)(C)NC(=O)[C@H](CCC(N)=O)NC(=O)[C@H](C)NC(=O)[C@H](CCCCNC(=O)COCCOCCNC(=O)COCCOCCNC(=O)CC[C@H](NC(=O)CCCCCCCCCOc1ccc(C(=O)O)cc1)C(=O)O)NC(=O)[C@H](CCCN)NC(=O)[C@H](CC(=O)O)NC(=O)[C@H](CC(C)C)NC(=O)[C@](C)(CC(C)C)NC(=O)[C@@H](NC(=O)C(C)(C)NC(=O)[C@@H](NC(=O)[C@H](CC(=O)O)NC(=O)[C@H](CO)NC(=O)[C@@H](NC(=O)[C@](C)(Cc1ccccc1F)NC(=O)[C@@H](NC(=O)CNC(=O)[C@H](CCC(=O)O)NC(=O)C(C)(C)NC(=O)[C@@H](N)Cc1ccc(O)cc1)[C@@H](C)O)[C@@H](C)O)C(C)C)[C@@H](C)CC)[C@@H](C)CC)C(=O)N[C@@H](CCC(=O)O)C(=O)NCC(=O)NCC(=O)N1CCC[C@H]1C(=O)N[C@@H](CO)C(=O)N[C@@H](CO)C(=O)NCC(=O)N[C@@H](C)C(=O)N1CCC[C@H]1C(=O)N1CCC[C@H]1C(=O)N1CCC[C@H]1C(=O)N[C@@H](CO)C(=O)N[C@@H](CCCCNC(=O)COCCOCCNC(=O)COCCOCCNC(=O)CC[C@H](NC(=O)CCCCCCCCCOc1ccc(C(=O)O)cc1)C(=O)O)C(N)=O [Example 380] (H-Y[Aib]EGT[αMePhe(2-F)]TSDV[Aib]I[αMeL]LD[Orn]K([AEEA-AEEA-γGlu-Decanoyl(10-(4-HOOC-PhO))])AQ[Aib]EFI[dE][αMeY]LIEGGPSSGAPPPSK([AEEA-AEEA-γGlu-Decanoyl(10-(4-HOOC-PhO))])-NH2)
hGCGR; hGCGR EC50, nM (SEM, n), cAMP, 37° C., 0.1% bovine casein (no human serum albumin), geometric mean
  EC50: > 9950 nM
hGCGR; hGCGR EC50, nM (SEM, n), cAMP, 37° C., 0.1% bovine casein and 1.0% human serum albumin, geometric mean (SEM, n)
  EC50: > 9950 nM
hGIPR; HEK293, read-out: hGIPR Emax, % ± SEM, cAMP, 37° C., 0.1% bovine casein and 1.0% human serum albumin, percent of maximal response to GIP(1-42)NH2
  Emax: 93.5%
hGIPR; HEK293, read-out: hGIPR Emax, % ± SEM, cAMP, 37° C., 0.1% bovine casein, percent of maximal response to GIP(1-42)NH2, arithmetic mean
  Emax: 100%
hGIPR; hGIPR EC50, nM (SEM, n), cAMP, 37° C., 0.1% bovine casein (no human serum albumin)
  EC50: 0.0209 nM
hGLP-1R; HEK293, read-out: hGLP-1R Emax, % ± SEM, cAMP, 37° C., 0.1% bovine casein and 1.0% human serum albumin, percent of maximal response to GLP-1(7-36)NH2
  Emax: 94.5%
hGLP-1R; HEK293, read-out: hGLP-1R Emax, % ± SEM, cAMP, 37° C., 0.1% bovine casein, percent of maximal response to GLP-1(7-36)NH2, arithmetic mean
  Emax: 96.2%
hGLP-1R; cAMP, 37° C., 0.1% bovine casein (no human serum albumin), geometric mean
  EC50: 0.176 nM
hGLP-1R; cAMP, 37° C., 0.1% bovine casein and 1.0% human serum albumin, geometric mean (SEM, n)
  EC50: 28 nM

## CC[C@H](C)[C@H](NC(=O)[C@H](CC(C)C)NC(=O)[C@](C)(Cc1ccc(O)cc1)NC(=O)[C@H](CCCCNC(=O)COCCOCCNC(=O)COCCOCCNC(=O)CCCCCCCCCCCCC(=O)O)NC(=O)[C@@H](NC(=O)[C@H](Cc1ccccc1)NC(=O)[C@H](CCC(=O)O)NC(=O)C(C)(C)NC(=O)[C@H](CCC(N)=O)NC(=O)[C@H](C)NC(=O)[C@H](CCCCNC(=O)COCCOCCNC(=O)COCCOCCNC(=O)CCCCCCCCCCCCC(=O)O)NC(=O)[C@H](CCCN)NC(=O)[C@H](CC(=O)O)NC(=O)[C@H](CC(C)C)NC(=O)[C@](C)(CC(C)C)NC(=O)[C@@H](NC(=O)[C@H](CO)NC(=O)[C@H](Cc1ccncc1)NC(=O)[C@H](CC(=O)O)NC(=O)[C@H](CO)NC(=O)[C@@H](NC(=O)[C@](C)(Cc1ccccc1F)NC(=O)[C@@H](NC(=O)CNC(=O)[C@H](CCC(=O)O)NC(=O)C(C)(C)NC(=O)[C@@H](N)Cc1ccc(O)cc1)[C@@H](C)O)[C@@H](C)O)[C@@H](C)CC)[C@@H](C)CC)C(=O)N[C@@H](CCC(=O)O)C(=O)NCC(=O)NCC(=O)N1CCC[C@H]1C(=O)N[C@@H](CO)C(=O)N[C@@H](CO)C(=O)NCC(=O)N[C@@H](C)C(=O)N1CCC[C@H]1C(=O)N1CCC[C@H]1C(=O)N1CCC[C@H]1C(=O)N[C@@H](CO)C(N)=O [Example 81]
hGCGR; hGCGR EC50, nM (SEM, n), 0.1% bovine casein and 1.0% human serum albumin, 37° C., geometric mean
  EC50: > 9950 nM
hGCGR; hGCGR EC50, nM (SEM, n), cAMP, incubated at 37° C., 0.1% bovine casein (no human serum albumin), geometric mean
  EC50: > 9950 nM
hGIPR; HEK293, read-out: hGIPR Emax, % ± SEM, 0.1% bovine casein and 1.0% human serum albumin, 37° C., percent of maximal response to GIP(1-42)NH2
  Emax: 97.4%
hGIPR; hGIPR EC50, nM (SEM, n), 0.1% bovine casein and 1.0% human serum albumin, 37° C.
  EC50: 0.531 nM
hGIPR; hGIPR EC50, nM (SEM, n), cAMP, incubated at 37° C., 0.1% bovine casein (no human serum albumin)
  EC50: 0.0114 nM
hGLP-1R; 0.1% bovine casein and 1.0% human serum albumin, 37° C., geometric mean
  EC50: 3.47 nM
hGLP-1R; cAMP, incubated at 37° C., 0.1% bovine casein (no human serum albumin), geometric mean
  EC50: 0.176 nM
